≈ marks a conversion by molar mass, not a printed value.
Columns and labels:
[1] = system: filamentous fungi (AspergiIlus fiavus, Fusarium oxysporum, usalago zeae and the like); assay: agar plate inhibition zone test, filamentous fungi; assay type: cell-based; conditions: agar plates, methanol solutions, 28° C. or 37° C., 24 hours
Experimental: Compound I is also useful for inhibiting the growth of filamentous fungi. Such use may be illustrated in the following tests with AspergiIlus fiavus, Fusarium oxysporum, usalago zeae and the like. Inocula for filamentous fungi are prepared by scraping the surface of stock plates maintained on potato dextrose agar with a moistened sterile dacron swab. The spores and mycelia are then suspended in 10 milliliters of sterile potato dextrose broth and adjusted to 70 percent transmission at 660 nm. The samples to be tested for production of antifungal agent are applied directly to the agar plates as methanol solutions. When the sample to be tested is crude broth, it may be centrifuged prior to application. The assay plates are then incubated at either 28° C. or 37° C. for 24 hours. Following incubation, the inhibition zones are measured. Growths are also noted as to appearance.

C. albicans (CLY539) = assay: microbroth dilution assay (MIC/MFC), C. albicans (CLY539); assay type: cell-based; conditions: Candida albicans, C. albicans (CLY539)
Experimental: (§1) In the microbroth dilution assay, microorganisms were selected by streaking a yeast culture on Sabouraud dextrose agar (SDA) incubating for 24-48 hours at 35°-37° C., thereafter selected 3 to 5 characteristic colonies and transferring to a fresh plate and incubating under similar conditions. From the regrowth, 3 to 5 colonies were selected and suspended in. 10 milliliters of YM broth (Dffco) and incubated for 4 hours at 35°-37° C. shaking at 225 rpm. The 4 hour broth cultures were adjusted optically to 86% transmission resulting in a concentration of 1-5×10^6 cfu/ml which was further diluted 1:100 in YNBD (yeast nitrogen base with 1% dextrose) to obtain a concentration of 1-5×10^4 cfu/ml for use as inocula.
(§2) The test compound, Compound I, was prepared as a stock solution of 128 μg/ml in 20% methanol and 75 μl of said solution delivered to each well in column 1 of a 96-well, U-bottomed microtiter plate. The compounds in column 1 were then serially diluted two-fold to yield concentrations from 32 μg/ml to 0.15 μg/ml.
as §2, with “Amphotericin, the control” for “The test”, “compound,” for “compound, Compound I,”, “512” for “128”, “10% DMSO” for “20% methanol”, “128” for “32”, “0.6” for “0.15”
(§3) The plates containing the diluted compounds were then inoculated with 75 μl/well of the appropriate microorganism and incubated for 48 hours at 35°-37° C. with MIC (minimum inhibitory concentration) determinations carried out after 24 hours of incubation. Growth and sterility controls for each organism and sterility checks for the compounds also were carded out.
(§4) After recording MICs at 24 hours, the microtiter plates were shaken gently to resuspend the cells. A 1.5 μl sample was transferred from each well of the 96-well microtiter plate to a single reservoir inoculum plate containing SDA. The inoculated SDA and corresponding microtiter plates were incubated for 24 hours at 35°-37° C. For Cryptococus neoformans, SDA plates were inoculated at 48 hours after recording MICs and incubated 48 hours before reading the MFC. MFC is the lowest concentration of compound at which either no growth or growth of ≤4 colonies occur.

[2] = system: Cryptococcus neoformans (MY 2062); assay: microbroth dilution assay (MIC), Cryptococcus neoformans (MY 2062); assay type: cell-based; conditions: 24 h; Cryptococcus neoformans (MY 2062); 35°-37° C.; SDA plates inoculated at 48 hours after recording MICs; read-out: Minimum Inhibitory Concentration (MIC)
Experimental: as §1
as §2, with “μg/ml. […]” for “μg/ml.”
(§5) After recording MICs at 24 hours, the microtiter plates were shaken gently to resuspend the cells. […] For Cryptococus neoformans, SDA plates were inoculated at 48 hours after recording MICs and incubated 48 hours before reading the MFC. […]

[3] = system: C. parapsilosis (MY 1010); assay: microbroth dilution assay (MIC/MFC), C. parapsilosis (MY 1010); assay type: cell-based; conditions: Lodderomyces parapsilosis, C. parapsilosis (MY 1010)
Experimental: as §1, §2
as §2, with “Amphotericin, the control” for “The test”, “compound,” for “compound, Compound I,”, “512” for “128”, “10% DMSO” for “20% methanol”, “128” for “32”, “0.6” for “0.15”
as §3, §4

[4] = system: Saccharomyces cerevisiae (MY 2140); assay: microbroth dilution assay (MIC/MFC), Saccharomyces cerevisiae (MY 2140); assay type: cell-based; conditions: Saccharomyces cerevisiae (MY 2140)
Experimental: as §1, §2
as §2, with “Amphotericin, the control” for “The test”, “compound,” for “compound, Compound I,”, “512” for “128”, “10% DMSO” for “20% methanol”, “128” for “32”, “0.6” for “0.15”
as §3, §4

A. fumigatus (5668) = assay: microbroth dilution assay (MIC), A. fumigatus (5668); assay type: cell-based; conditions: Aspergillus fumigatus; A. fumigatus (5668); 24 h, 35°-37° C.; read-out: Minimum Inhibitory Concentration (MIC)
Experimental: as §1
as §2, with “μg/ml. […]” for “μg/ml.”
as §5

[5] = system: C. guillermondii (MY 1019); assay: microbroth dilution assay (MIC/MFC), C. guillermondii (MY 1019); assay type: cell-based; conditions: C. guillermondii (MY 1019)
Experimental: as §1, §2
as §2, with “Amphotericin, the control” for “The test”, “compound,” for “compound, Compound I,”, “512” for “128”, “10% DMSO” for “20% methanol”, “128” for “32”, “0.6” for “0.15”
as §3, §4

[6] = system: Aspergillus fumigatus (MF 4839); assay: microbroth dilution assay (MIC), Aspergillus fumigatus (MF 4839); assay type: cell-based; conditions: Aspergillus fumigatus (MF 4839); 24 h, 35°-37° C.; read-out: Minimum Inhibitory Concentration (MIC)
Experimental: as §1
as §2, with “μg/ml. […]” for “μg/ml.”
as §5

panel of fungi = assay: broth microdilution assay against a panel of fungi; assay type: cell-based; conditions: MIC and MFC
Experimental: as §1
as §2, with “μg/ml. […]” for “μg/ml.”
as §5

C. albicans (CA2) = assay: microbroth dilution assay (MIC/MFC), C. albicans (CA2); assay type: cell-based; conditions: Candida albicans, C. albicans (CA2)
Experimental: as §1, §2
as §2, with “Amphotericin, the control” for “The test”, “compound,” for “compound, Compound I,”, “512” for “128”, “10% DMSO” for “20% methanol”, “128” for “32”, “0.6” for “0.15”
as §3, §4

C. topicalis (MY1012) = assay: microbroth dilution assay (MIC/MFC), C. topicalis (MY1012); assay type: cell-based; conditions: C. topicalis (MY1012)
Experimental: as §1, §2
as §2, with “Amphotericin, the control” for “The test”, “compound,” for “compound, Compound I,”, “512” for “128”, “10% DMSO” for “20% methanol”, “128” for “32”, “0.6” for “0.15”
as §3, §4

[7] = system: Candida albicans (MY 1055); assay: microbroth dilution assay (MIC/MFC), Candida albicans (MY 1055); assay type: cell-based; conditions: Candida albicans (MY 1055)
Experimental: as §1, §2
as §2, with “Amphotericin, the control” for “The test”, “compound,” for “compound, Compound I,”, “512” for “128”, “10% DMSO” for “20% methanol”, “128” for “32”, “0.6” for “0.15”
as §3, §4

C. glabrata (MY1381) = assay: microbroth dilution assay (MIC/MFC), C. glabrata (MY1381); assay type: cell-based; conditions: Nakaseomyces glabratus, C. glabrata (MY1381)
Experimental: as §1, §2
as §2, with “Amphotericin, the control” for “The test”, “compound,” for “compound, Compound I,”, “512” for “128”, “10% DMSO” for “20% methanol”, “128” for “32”, “0.6” for “0.15”
as §3, §4

[8] = system: C. pseudotropicalis (MY 2099); assay: microbroth dilution assay (MIC/MFC), C. pseudotropicalis (MY 2099); assay type: cell-based, Candida pseudotropicalis; conditions: Kluyveromyces marxianus, C. pseudotropicalis (MY 2099)
Experimental: as §1, §2
as §2, with “Amphotericin, the control” for “The test”, “compound,” for “compound, Compound I,”, “512” for “128”, “10% DMSO” for “20% methanol”, “128” for “32”, “0.6” for “0.15”
as §3, §4

C. tropicalis (MY1124) = assay: microbroth dilution assay (MIC/MFC), C. tropicalis (MY1124); assay type: cell-based; conditions: Candida tropicalis, C. tropicalis (MY1124)
Experimental: as §1, §2
as §2, with “Amphotericin, the control” for “The test”, “compound,” for “compound, Compound I,”, “512” for “128”, “10% DMSO” for “20% methanol”, “128” for “32”, “0.6” for “0.15”
as §3, §4

[9] = 24 h, 35°-37° C., read-out: Minimum Inhibitory Concentration (MIC)
[10] = no growth or ≤4 colonies on SDA after 24 h, read-out: Minimum Fungicidal Concentration (MFC)

CCCCCCCCCCC(C)C(O)C(C)/C=C(C)/C=C(\C)C(=O)C(C)/C=C(\C)C(=O)OC(CO)C(O)C(O)C(=O)O (stereo not shown) [Compound I]
inhibition of growth of fungal organisms (inhibition zones) [1]: effectively inhibit growth of the fungal organisms | MIC (C. albicans (CLY539); [9]): 2 µg/mL (≈ 3.35 µM) | MFC (C. albicans (CLY539); [10]): 2 µg/mL (≈ 3.35 µM) | MIC [2]: 2 µg/mL (≈ 3.35 µM) | MIC [3, 9]: 2 µg/mL (≈ 3.35 µM) | MFC [3, 10]: 2 µg/mL (≈ 3.35 µM) | MIC [4, 9]: 4 µg/mL (≈ 6.7 µM) | MFC [4, 10]: 4 µg/mL (≈ 6.7 µM) | MIC (A. fumigatus (5668)): > 32 µg/mL | MIC [5, 9]: 4 µg/mL (≈ 6.7 µM) | MFC [5, 10]: 16 µg/mL (≈ 26.8 µM) | MIC [6]: > 32 µg/mL | effective concentrations against a panel of fungi compared with amphotericin B (panel of fungi): effective at concentrations comparable to an established antifungal agent, amphotericin B | MIC (C. albicans (CA2); [9]): 2 µg/mL (≈ 3.35 µM) | MFC (C. albicans (CA2); [10]): 2 µg/mL (≈ 3.35 µM) | MIC (C. topicalis (MY1012); [9]): 1 µg/mL (≈ 1.68 µM) | MFC (C. topicalis (MY1012); [10]): 0.5 µg/mL (≈ 0.838 µM) | MIC [7, 9]: 2 µg/mL (≈ 3.35 µM) | MFC [7, 10]: 2 µg/mL (≈ 3.35 µM) | MIC (C. glabrata (MY1381); [9]): 4 µg/mL (≈ 6.7 µM) | MFC (C. glabrata (MY1381); [10]): 4 µg/mL (≈ 6.7 µM) | MIC [8, 9]: 1 µg/mL (≈ 1.68 µM) | MFC [8, 10]: 1 µg/mL (≈ 1.68 µM) | MIC (C. tropicalis (MY1124); [9]): 2 µg/mL (≈ 3.35 µM) | MFC (C. tropicalis (MY1124); [10]): 2 µg/mL (≈ 3.35 µM)
